This note sets out measurements from patent US12655120B2, “GPR52 modulator compounds” (NXERA PHARMA UK LIMITED, priority 2020, dated 2026).

For data set [1], the system named is caffeine-induced hyperlocomotor activity. The data set is described as follows: Caffeine-induced locomotor activity in rat. It counts as in vivo, male Sprague-Dawley rats. The note with it: 0.1, 0.3, 1 and 3 mg/kg PO, 60 min before caffeine 15 mg/kg s.c.; statistical significance at 1 and 3 mg/kg. An excerpt:
Caffeine, a non-selective adenosine receptor antagonist, is a psychostimulant which increases rodent locomotor activity principally via blockade of A2A receptors (Br. J. Pharmacol., 2000, 129, 1465). These receptors are densely expressed on the terminals of GABAergic striatopallidal neurons in the indirect pathway of the basal ganglia, in which dopamine D2 receptors are co-expressed (J. Comp. Neurol., 1998, 401, 163; J. Comp. Neurol., 2001, 431, 331). Tonic activation of A2A receptors decreases the affinity of D2 receptors to dopamine and antagonism of A2A receptors facilitates dopaminergic signalling (Curr. Pharm. Des., 2008, 14, 1468). […] Male Sprague-Dawley rats (200-250 g) were housed in groups with a 12 h light/dark cycle (lights on at 07.00), at an ambient temperature of 21±2° C. and with standard pelleted diet and water adlibitum. Testing was carried out in the light phase. On the day of the experiment, animals were habituated to the locomotor cages for a 60-minute period. Subsequently, they were dosed with vehicle or Example 39 (0.1, 0.3, 1 and 3 mg/kg) by the oral route and returned to the appropriate locomotor cage. Example 39 was formulated in a vehicle of 10% DMAC, 10% solutol (Kolliphor HS15) and 80% water (v/v/v). […] Locomotor activity was assessed for a 2 h period after caffeine treatment. […] SEMs were calculated from the residuals of the statistical model. […]

Data set [2] can be described thus: Pharmacokinetic profiling in male Sprague-Dawley rats (IV and PO). The note with it: plasma, Rat PO, 3 mg/kg, n = 3, mean ± standard deviation. It counts as in vivo. The procedure: The pharmacokinetic profiles of Example 39 were assessed in male Sprague-Dawley rats via intravenous (IV) and oral (per os, PO) routes of delivery. Pharmacokinetic data (mean values ±standard deviation) for Example 39 of the invention are detailed in Table 5.
Methods: For pharmacokinetic analysis, groups of three male Sprague-Dawley rats, ranging in weight between 200 and 230 g, were administered a single dose of Example 39 via IV or PO route, using the doses, dose volumes and vehicles specified in Table 5. Following dosing, blood samples were taken at several time points (pre-dose, 2 min, 5 min, 15 min, 30 min, 1 h, 3 h, 6 h, 12 h and 24 h for IV administration and pre-dose, 5 min, 15 min, 30 min, 1 hr, 2 h, 4 h, 8 h, 12 h and 24 h for PO administration) via serial tail vein bleeds, and centrifuged to separate plasma for analysis by LC-MS/MS. WinNonlin v8.2 statistics software (Pharsight Corporation, California, USA) was used to generate pharmacokinetic parameters using non-compartmental analysis.

In data set [3] the target is T1, human GPR52 (Homo sapiens, UniProt Q9Y2T5).
T1 construct: expressed in transfected cells; host or cells: HEKf suspension cells infected with BacMam virus
The data set is described as follows: GPR52 Agonist Functional cAMP Assay. It counts as cell-based. The note with it: normalised to DMSO (0%) and maximal compound 7m (J. Med. Chem., 2014, 57, 5226) response (100%). The procedure: HEKf suspension cells were infected for 24 h with 0.1% v/v human GPR52 expressing BacMam virus, a modified baculovirus designed for mammalian gene expression. Following BacMam infection, cells were pelleted by centrifugation (335 g, 5 min), resuspended in cell freezing medium (Sigma) and frozen at −150° C. until required. On experiment day, 25 nL GPR52 compound dilutions, prepared in DMSO, were stamped onto proxiplates (PerkinElmer) by a LabCyte ECHO acoustic dispenser. Frozen cells were thawed and resuspended in assay stimulation buffer (Cisbio) containing 0.5 mM 3-iso-butyl-1-methylxanthine (IBMX, Sigma) to achieve a density of 2000 cells per well. 10 μl cells were added to assay plates using a Multidrop Combi Reagent Dispenser (ThermoFisher) before centrifugation (335 g, 1 min). Cells were incubated with compounds at 37° C. for 30 min prior to addition of cAMP detection reagents (HiRange cAMP kit, Cisbio) which were prepared according to the manufacturer's instructions. Plates were shaken for 1 h at room temperature before reading on a PHERAstar FS plate reader (BMG Labtech) using standard HTRF settings. HTRF ratios were obtained by dividing the acceptor emissions (665 nm) by the donor emissions (620 nm) and multiplying by 10,000.

T1 sequence (Q9Y2T5 whole entry): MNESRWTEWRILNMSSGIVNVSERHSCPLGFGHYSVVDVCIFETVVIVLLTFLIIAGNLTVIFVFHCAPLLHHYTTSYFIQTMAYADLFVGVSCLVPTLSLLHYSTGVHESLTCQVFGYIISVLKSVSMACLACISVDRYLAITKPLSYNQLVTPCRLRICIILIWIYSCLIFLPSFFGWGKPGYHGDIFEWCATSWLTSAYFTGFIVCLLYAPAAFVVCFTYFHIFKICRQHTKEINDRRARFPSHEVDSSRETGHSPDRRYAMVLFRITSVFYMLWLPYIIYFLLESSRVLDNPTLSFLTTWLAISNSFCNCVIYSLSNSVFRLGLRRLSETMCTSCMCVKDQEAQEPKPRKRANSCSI

Consider `Cc1nn(-c2cc(Cc3cc(F)cc(C(F)(F)F)c3)ccn2)c(CO)c1C(N)=O` [Example 39, 1-(4-(3-fluoro-5-(trifluoromethyl)benzyl)pyridin-2-yl)-5-(hydroxymethyl)-3-methyl-1H-pyrazole-4-carboxamide], for which the “effect on caffeine-induced hyperlocomotor response” value in data set [1] is “dose-dependent reduction”. For the same compound, in data set [2], the bioavailability amounted to 77.4 ± 14.9%. The Emax in data set [3] was found to be 101%.

By bioavailability is commonly meant dose-corrected exposure relative to a reference, in per cent. Read a low bioavailability as poor availability. Usually Emax stands for the maximal effect, on the per cent scale that the assay sets.
